Seven molecules from patent publication US7361743B2 (Pfizer Inc, priority 2004, dated 2008) can be followed below.

Test [1] relates to E. coli transcription/translation (bacterial protein synthesis, E. coli S30 extract). Put plainly: In vitro inhibition of E. coli transcription and translation assay (TT), cell-free. The settings on record: for IC50: cell-free E. coli S30 extract; for In vitro inhibition of E. coli transcription and translation compared with literature azepine compound VIII(18): cell-free TT assay, comparison in words. The format is biochemical. On the procedure:
Inhibition of bacterial protein synthesis was assayed in a cell-free E. coli transcription/translation assay.
Stock solutions of compounds were prepared at 10 mg/mL in DMSO. The assay contained less or equal to 1% (v/v) final concentration of DMSO. Three-fold serial dilutions were prepared in assay buffer at 6-fold final concentration in 96 well microtiter plate.
All vials, tubes and microtiter plates are RNase free. The Mix was freshly prepared with 10 μl H2O, 10 μl AA-M, 10 μl AA-L, 80 μl Premix and 50 μl ES30 extract. The assay was performed in a 96-well plate. Five microliters of compounds at various concentrations (6-fold final assay concentration) were preincubated with 20 μl of the mix for 5 min at room temperature. The reaction started with addition of 5 μl of plasmid (˜0.1 mg/mL pGEMBGAL), and kept at 37° C. for 1 h followed by the addition of 150 μl of OPNG solution (4 mg/mL OPNG in 0.1M NaPi, pH 7.5, 1 mM MgCl2 and 2 mM DTT). 150 μl of the reaction was transferred to a ½-area plate and increase in absorption at OD420 nm was monitored for 10 min using a Spectramax plate reader (Molecular Devices). The slope of absorption change over time is corresponding to the pathway activity.
The E. coli S30 Extract for circular DNA kit was purchased from Promega. Original plasmid pGEMBGAL was obtained from Promega and amplified via Maxiprep in house. 2-Nitrophenyl β-D-galactopyranoside was obtained from Sigma. Clindamycin HCl (USP) was purchased from Spectrum.
The inhibition are expressed as percent of control activity (without inhibitor) which is calculated according to equation (1): Inhibition %=(compound slope-blank slope)/(control slope-blank slope)*100 (1)
All IC50s were determined by fitting the experimental data to equation (2) using software DeltaGraph (DeltaPoint Inc.): Y=Y0/(1+(X/IC50)[…])+c (2)
Where Y: activity at given inhibitor concentration; Y0: activity without inhibitor; X: inhibitor concentration; d: slope; c: constant.
Lincosamides inhibit bacterial growth through binding to the bacterial 50S ribosome, thus inhibiting peptide bond formation. The transcription/translation assay provides a screening tool to measure inhibition of bacterial protein synthesis pathway at the target level without the complication of differences in membrane permeability.

The subject of a further test is Haemophilus influenzae. Put plainly: Susceptibility testing, NCCLS microdilution MIC. The format is cell-based. The conditions noted are these: Haemophilus influenzae, ATCC31517; H. influenzae ATCC 31517; Example A′; read-out: MIC H. influenzae. On the technique in general: Dilution methods test growth across graded concentrations, often in twofold steps.
For test [2], the system named is Staphylococcus aureus Smith. Put plainly: Efficacy in murine S. aureus septicemia. The test is classed as in vivo, ICR mice. The settings on record: for Efficacy in the murine S. aureus septicemia model relative to clindamycin: IV route of administration, compound given 1 hour after inoculation; for Efficacy in the murine S. aureus septicemia model relative to clindamycin / Efficacy in the murine S. aureus septicemia model by oral route: mice; for ED50: Staphylococcus aureus, murine S. aureus Smith septicemia, dosed 1 hour after inoculation, mortality 7 days; for Efficacy in the murine S. aureus septicemia model by oral route: oral route of administration. On the procedure:
(§1) Efficacy studies were performed in an S. aureus murine septicemia model according to models published elsewhere (Goldstein, B. P., G. Candiani, T. M. Arain, G. Romano, I. Ciciliato, M. Berti, M. Abbondi, R. Scotti, M. Mainini, F. Ripamonti, and et al. 1995. Antimicrobial activity of MDL 63,246, a new semisynthetic glycopeptide antibiotic Antimicrob. Agents Chemother. 39:1580-1588; Misiek, M., T. A. Pursiano, F. Leitner, and K. E. Price 1973. Microbiological properties of a new cephalosporin, BL-S 339:7-(phenylacetimidoyl-aminoacetamido)-3-(2-methyl-1,3,4-thiadiazol-5-ylthio methyl)ceph-3-em-4-carboxylic acid Antimicrob. Agents Chemother. 3:40-48).
Compounds were dissolved in 2% Tween 80 for oral dosing or 0.9% NaCl solution for intravenous dosing. Compounds were administered at 1 hour after bacterial inoculation. Vancomycin or ampicillin were used as controls.
Male or female ICR mice weighing 22±2 g from MDS Pharma Services were used for the evaluation. Food and water was given ad libitum. Groups of 6 mice weighing […] were used for the experiment. Mice were inoculated intraperitoneally with Staphylococcus aureus Smith at 4 104 CFU in 0.5 ml of Brain Heart Infusion Broth (Difco) containing 5% mucin (Sigma). Mortality was recorded once daily for 7 days following bacterial inoculation.
as §1, with “39:1580-1588.;” for “39:1580-1588;”, “339: 7-(phenylacetimidoyl-aminoacetamido)-3-(2-methyl-1,3,4-thiadiazol-5-ylthio” for “339:7-(phenylacetimidoyl-aminoacetamido)-3-(2-methyl-1,3,4-thiadiazol-5-ylthio”
Male or female ICR mice weighing 22±2 g from MDS Pharma Services were used for the evaluation. Food and water was given ad libitum. Groups of 6 mice weighing […] were used for the experiment. Mice were inoculated intraperitoneally with Staphylococcus aureus Smith at 4 104 CFU in 0.5 mL of Brain Heart Infusion Broth (Difco) containing 5% mucin (Sigma). Mortality was recorded once daily for 7 days following bacterial inoculation.

The subject of a further test is Bacteroides fragilis. Put plainly: Susceptibility testing, NCCLS microdilution MIC (anaerobe). The test is classed as cell-based. The conditions noted are these: Bacteroides fragilis, ATCC25285; B. fragilis ATCC 25285; Example A′; read-out: MIC B. fragilis.
A further test deals with Staphylococcus aureus. Put plainly: Susceptibility testing, NCCLS microdilution MIC. The test is classed as cell-based. The conditions noted are these: ATCC25923, S. aureus ATCC 25923, Example A′, read-out: MIC S. aureus.
For another test, the system named is Enterococcus faecalis. Description: Susceptibility testing, NCCLS microdilution MIC. The settings on record: Enterococcus faecalis, ATCC29212; E. faecalis ATCC 29212; Example A′; read-out: MIC E. faecalis. The test is classed as cell-based.
Where [3] appears, read: intravenous administration, read-out: ED50, IV.
The mark [4] stands for this setting: oral administration, read-out: ED50, PO.

Converted amounts (≈) assume the structure as drawn. Like-named read-outs stand apart in the source and are kept apart here.

For orientation: IC50 means the concentration at which inhibition is half-maximal. High values mean a need for much substance, low ones inhibition by little substance. The term ED50 denotes the dose at which the effect has come halfway, by size or by number of responders. In turn, `CS[C@H]1O[C@H]([C@H](NC(=O)C2CC[C@H](CCCCF)CCN2)C(C)C)[C@H](O)[C@H](O)[C@H]1O` (stereo in doubt) [Example 4′, 5-(4-Fluoro-butyl)-azepane-2-carboxylic acid [2-methyl-1-(3,4,5-trihydroxy-6-methylsulfanyl-tetrahydro-pyran-2-yl)-propyl]-amide] registered an IC50 in test [1] of 490 nM. Also, in test [1], the “In vitro inhibition of E. coli transcription and translation compared with literature azepine compound VIII(18)” value is on record as “markedly superior”. The MIC is 0.5 µg/mL (≈ 1.11 µM) with Haemophilus influenzae, 1 µg/mL (≈ 2.22 µM) with Bacteroides fragilis, 0.06 µg/mL (≈ 0.133 µM) with Staphylococcus aureus and 0.125 µg/mL (≈ 0.277 µM) in the test with Enterococcus faecalis. In test [2], the “Efficacy in the murine S. aureus septicemia model relative to clindamycin” value is recorded as “three to greater than five fold better”. Besides, the ED50 in test [2] (setting [3]) was found to be 0.28 mg/kg.
In test [1], `CS[C@H]1O[C@H]([C@H](NC(=O)C2CC[C@H](CCCCF)CCN2)[C@H](C)Cl)[C@H](O)[C@H](O)[C@H]1O` (stereo in doubt) [Example 3′, 5-(4-Fluoro-butyl)-azepane-2-carboxylic acid [2-chloro-1-(3,4,5-trihydroxy-6-methylsulfanyl-tetrahydro-pyran-2-yl)-propyl]-amide] returned an IC50 of 190 nM. Besides, the “In vitro inhibition of E. coli transcription and translation compared with literature azepine compound VIII(18)” value in test [1] was “markedly superior”. In addition, the MIC in the test with Haemophilus influenzae amounted to 0.25 µg/mL (≈ 0.531 µM); in the test on Bacteroides fragilis, 0.5 µg/mL (≈ 1.06 µM); in the test with Staphylococcus aureus it was 0.03 µg/mL (≈ 0.0637 µM); in the test with Enterococcus faecalis, 0.06 µg/mL (≈ 0.127 µM). Moreover, in test [2], the “Efficacy in the murine S. aureus septicemia model relative to clindamycin” value is on record as “three to greater than five fold better”. In addition, the ED50 in test [2] (setting [3]) stood at 0.32 mg/kg.
Turning to `CS[C@H]1O[C@H]([C@H](NC(=O)C2CC[C@H](CCCF)CCN2)[C@H](C)Cl)[C@H](O)[C@H](O)[C@H]1O` (stereo in doubt) [Example 5′, 5-(3-Fluoro-propyl)-azepane-2-carboxylic acid [2-chloro-1-(3,4,5-trihydroxy-6-methylsulfanyl-tetrahydro-pyran-2-yl)-propyl]-amide], 2410 nM corresponded to half-maximal inhibition in test [1] (IC50). The “In vitro inhibition of E. coli transcription and translation compared with literature azepine compound VIII(18)” value in test [1] was “markedly superior”. Besides, the MIC in the test with Haemophilus influenzae was 0.25 µg/mL (≈ 0.547 µM); with Bacteroides fragilis it was 0.25 µg/mL (≈ 0.547 µM); in the test on Staphylococcus aureus it was 0.03 µg/mL (≈ 0.0656 µM); in the test on Enterococcus faecalis, 0.06 µg/mL (≈ 0.131 µM). The “Efficacy in the murine S. aureus septicemia model relative to clindamycin” value in test [2] is “three to greater than five fold better”. In addition, the ED50 in test [2] (setting [3]) was found to be 0.18 mg/kg; in test [2] (setting [4]), 6.84 mg/kg. Also, the “Efficacy in the murine S. aureus septicemia model by oral route” value in test [2] is “demonstrated the potential for use of the compounds as orally administered therapeutic agents”.
In the case of `CS[C@H]1O[C@H]([C@H](NC(=O)C2CC[C@H](CCCC#N)CCN2)[C@H](C)Cl)[C@H](O)[C@H](O)[C@H]1O` (stereo in doubt) [Example 7′, 5-(3-Cyano-propyl)-azepane-2-carboxylic acid [2-chloro-1-(3,4,5-trihydroxy-6-methylsulfanyl-tetrahydro-pyran-2-yl)-propyl]-amide], half-maximal inhibition in test [1] (IC50) required 320 nM. Also, the “In vitro inhibition of E. coli transcription and translation compared with literature azepine compound VIII(18)” value in test [1] is recorded as “markedly superior”. Further, the MIC with Haemophilus influenzae turned out to be 0.5 µg/mL (≈ 1.08 µM); in the test with Bacteroides fragilis, 4 µg/mL (≈ 8.62 µM); with Staphylococcus aureus, 0.125 µg/mL (≈ 0.269 µM); in the test with Enterococcus faecalis, 0.25 µg/mL (≈ 0.539 µM). The “Efficacy in the murine S. aureus septicemia model relative to clindamycin” value in test [2] was “three to greater than five fold better”. The ED50 in test [2] (setting [3]) is 0.29 mg/kg; in test [2] (setting [4]), over 30 mg/kg.
`COCc1cn(CCC[C@@H]2CCN[C@H](C(=O)N[C@@H]([C@H]3O[C@H](SC)[C@H](O)[C@@H](O)[C@H]3O)[C@H](C)Cl)CC2)nn1` [Example 16′, 5-[3-(4-Methoxymethyl-[1,2,3]triazol-1-yl)-propyl]-azepane-2-carboxylic acid [2-chloro-1-(3,4,5-trihydroxy-6-methylsulfanyl-tetrahydro-pyran-2-yl)-propyl]-amide] displayed an IC50 in test [1] of 440 nM. Further, the “In vitro inhibition of E. coli transcription and translation compared with literature azepine compound VIII(18)” value in test [1] is “markedly superior”. In addition, the MIC in the test on Haemophilus influenzae was 2 µg/mL (≈ 3.64 µM); in the test with Bacteroides fragilis, over 8 µg/mL; in the test on Staphylococcus aureus, 2 µg/mL (≈ 3.64 µM); in the test on Enterococcus faecalis, over 8 µg/mL.
Molecule `COCCC[C@@H]1CCN[C@H](C(=O)N[C@@H]([C@H]2O[C@H](SC)[C@H](O)[C@@H](O)[C@H]2O)[C@H](C)Cl)CC1` [Example 13′, 5-(3-Methoxy-propyl)-azepane-2-carboxylic acid [2-chloro-1-(3,4,5-trihydroxy-6-methylsulfanyl-tetrahydro-pyran-2-yl)-propyl]-amide] gave an IC50 in test [1] of 830 nM. Besides, the “In vitro inhibition of E. coli transcription and translation compared with literature azepine compound VIII(18)” value in test [1] is given as “markedly superior”. The MIC in the test with Haemophilus influenzae was determined as 1 µg/mL (≈ 2.13 µM); in the test on Bacteroides fragilis, 4 µg/mL (≈ 8.53 µM); with Staphylococcus aureus it was 0.06 µg/mL (≈ 0.128 µM); in the test with Enterococcus faecalis, 0.5 µg/mL (≈ 1.07 µM). Besides, the “Efficacy in the murine S. aureus septicemia model relative to clindamycin” value in test [2] is “three to greater than five fold better”. Besides, the ED50 was 0.28 mg/kg in test [2] (setting [3]) and 6.84 mg/kg in test [2] (setting [4]). The “Efficacy in the murine S. aureus septicemia model by oral route” value in test [2] is reported as “demonstrated the potential for use of the compounds as orally administered therapeutic agents”.
In turn, `CS[C@H]1O[C@H]([C@H](NC(=O)C2CC[C@H](CCCF)CCN2)C(C)C)[C@H](O)[C@H](O)[C@H]1O` (some centres unmarked) [Example 6′] displayed an IC50 in test [1] of 760 nM. Also, in test [1], the “In vitro inhibition of E. coli transcription and translation compared with literature azepine compound VIII(18)” value is listed as “markedly superior”. Also, the MIC in the test on Haemophilus influenzae was 2 µg/mL (≈ 4.58 µM); in the test with Bacteroides fragilis, 1 µg/mL (≈ 2.29 µM); with Staphylococcus aureus, 0.06 µg/mL (≈ 0.137 µM); in the test with Enterococcus faecalis, 0.25 µg/mL (≈ 0.573 µM). Also, the “Efficacy in the murine S. aureus septicemia model relative to clindamycin” value in test [2] was “three to greater than five fold better”. Further, the ED50 in test [2] (setting [3]) was determined as 0.28 mg/kg.
